Assay results: patent US8192962B2, “Processes for detecting toxic substances” (Daikin Industries, Ltd., priority 2001, dated 2012)

System: Unknown protein yeast genes
Assay: DNA chip mRNA expression in yeast, unknown protein yeast genes (Table 1)
Assay type: cell-based, Saccharomyces cerevisiae S288C
Method: Yeast (Saccharomyces cerevisiae S288C (α SUC2mal mel gap2 CUP1)) were incubated at 25° C. on YPD medium (yeast extract 1%, polypepton 2%, glucose 2%). One of toxic chemical substances was added to the cells at logarithmic growth phase, and the cells were further incubated for two hours. Cells were cultured without any chemical substance in the same condition, and were used as control. Concentrations of the chemical substances were defined to inhibit the growth of the yeast but not lead to death.
After completion of the incubation, the culture was centrifuged to collect the cells. To the cells, sodium acetate buffer (50 mM sodium acetate, 10 mM EDTA, 1% SDS) was added, and the mixture was shaken at 65° C. for five minutes, followed by returning to room temperature, and obtaining the supernatant, of which the procedures were repeated two times. To the supernatant, ½ amount of a solution of phenol/chloroform was added, and the mixture was centrifuged to give a supernatant, which was added with an equal amount of chloroform, and the mixture was centrifuged to give a supernatant. To the supernatant, an equal amount of isopropanol containing 0.3 M sodium acetate was added, and the mixture was allowed to stand at room temperature for 30 minutes, after which the mixture was centrifuged to give a sediment of the whole RNAs. Seventy % ethanol was added to the sediment, and the mixture was again centrifuged to give a sediment, which was then dried and dissolved in water. mRNA was isolated from the whole RNAs as followings. In view of the fact that a poly A chain is attached to the 3′ terminus of mRNA, a polynucleotide having a poly T structure which was immobilized on the surface of latex beads was used to trap the mRNA, and then the mRNA was washed and eluted with spine column (Oligotex-dT30<Super>mRNA Purification Kit, Takara). Reverse transcription of the mRNA was conducted with a reverse transcriptase (Super Script II Reverse Transcriptase; catalogue No. 18064-014, GibcoBRL) using fluorescence-labeled nucleotides to give cDNAs that were introduced with Cy3-dUTP or Cy5-dUTP during the reverse transcription.
The labeled cDNAs were dissolved in TE buffer (10mM Tris-HCl/1 mM EDTA, pH8.0), and the solution was dropped on the DNA chip containing the whole genes of yeast (DNA Chip Research Inc. Japan) so that the cDNAs were hybridized on the DNA chip at 65° C. for over 12 hours. The fluoresces intensity of the DNA chip was read with a scanner, and the ratio relative to the fluorescence intensity resulting from the absence of chemical substance was estimated as the following, which is shown in Tables 1 to 9: […]

## C=CC=O [(14), acrolein]
Yeast gene YAL053W, incubated two hours with chemical substance
  The level of expressed mRNA in the presence of chemical substance/The level of expressed mRNA in the absence of chemical substance: 0.7
Yeast gene YBL048W
  The level of expressed mRNA in the presence of chemical substance/The level of expressed mRNA in the absence of chemical substance: 2.0
Yeast gene YBL107C
  The level of expressed mRNA in the presence of chemical substance/The level of expressed mRNA in the absence of chemical substance: 2.5
Yeast gene YDL072C, incubated two hours with chemical substance
  The level of expressed mRNA in the presence of chemical substance/The level of expressed mRNA in the absence of chemical substance: 1.8
Yeast gene YDL204W, incubated two hours with chemical substance
  The level of expressed mRNA in the presence of chemical substance/The level of expressed mRNA in the absence of chemical substance: 2.4
Yeast gene YDL222C, incubated two hours with chemical substance
  The level of expressed mRNA in the presence of chemical substance/The level of expressed mRNA in the absence of chemical substance: 1.3
Yeast gene YDR330W, incubated two hours with chemical substance
  The level of expressed mRNA in the presence of chemical substance/The level of expressed mRNA in the absence of chemical substance: 1.1
Yeast gene YDR411C, incubated two hours with chemical substance
  The level of expressed mRNA in the presence of chemical substance/The level of expressed mRNA in the absence of chemical substance: 0.8
Yeast gene YDR511W, incubated two hours with chemical substance
  The level of expressed mRNA in the presence of chemical substance/The level of expressed mRNA in the absence of chemical substance: 2.2
Yeast gene YDR545W, incubated two hours with chemical substance
  The level of expressed mRNA in the presence of chemical substance/The level of expressed mRNA in the absence of chemical substance: 0.7
Yeast gene YEL001C, incubated two hours with chemical substance
  The level of expressed mRNA in the presence of chemical substance/The level of expressed mRNA in the absence of chemical substance: 1.3
Yeast gene YER004W, incubated two hours with chemical substance
  The level of expressed mRNA in the presence of chemical substance/The level of expressed mRNA in the absence of chemical substance: 1.8
Yeast gene YER035W, incubated two hours with chemical substance
  The level of expressed mRNA in the presence of chemical substance/The level of expressed mRNA in the absence of chemical substance: 1.0
Yeast gene YER079W, incubated two hours with chemical substance
  The level of expressed mRNA in the presence of chemical substance/The level of expressed mRNA in the absence of chemical substance: 1.6
Yeast gene YER106W, incubated two hours with chemical substance
  The level of expressed mRNA in the presence of chemical substance/The level of expressed mRNA in the absence of chemical substance: 1.5
Yeast gene YER158C, incubated two hours with chemical substance
  The level of expressed mRNA in the presence of chemical substance/The level of expressed mRNA in the absence of chemical substance: 0.9
Yeast gene YER163C, incubated two hours with chemical substance
  The level of expressed mRNA in the presence of chemical substance/The level of expressed mRNA in the absence of chemical substance: 1.9
Yeast gene YER175C, incubated two hours with chemical substance
  The level of expressed mRNA in the presence of chemical substance/The level of expressed mRNA in the absence of chemical substance: 1.1
Yeast gene YFL006W, incubated two hours with chemical substance
  The level of expressed mRNA in the presence of chemical substance/The level of expressed mRNA in the absence of chemical substance: 1.7
Yeast gene YFL010C, incubated two hours with chemical substance
  The level of expressed mRNA in the presence of chemical substance/The level of expressed mRNA in the absence of chemical substance: 1.4
Yeast gene YFL024C
  The level of expressed mRNA in the presence of chemical substance/The level of expressed mRNA in the absence of chemical substance: 3.3
Yeast gene YFL032W, incubated two hours with chemical substance
  The level of expressed mRNA in the presence of chemical substance/The level of expressed mRNA in the absence of chemical substance: 0.6
Yeast gene YGL037C, incubated two hours with chemical substance
  The level of expressed mRNA in the presence of chemical substance/The level of expressed mRNA in the absence of chemical substance: 1.0
Yeast gene YGL047W, incubated two hours with chemical substance
  The level of expressed mRNA in the presence of chemical substance/The level of expressed mRNA in the absence of chemical substance: 2.3
Yeast gene YGL053W, incubated two hours with chemical substance
  The level of expressed mRNA in the presence of chemical substance/The level of expressed mRNA in the absence of chemical substance: 1.1
Yeast gene YGL121C
  The level of expressed mRNA in the presence of chemical substance/The level of expressed mRNA in the absence of chemical substance: 5.8
Yeast gene YGL199C, incubated two hours with chemical substance
  The level of expressed mRNA in the presence of chemical substance/The level of expressed mRNA in the absence of chemical substance: 0.8
Yeast gene YGR101W, incubated two hours with chemical substance
  The level of expressed mRNA in the presence of chemical substance/The level of expressed mRNA in the absence of chemical substance: 0.9
Yeast gene YGR110W
  The level of expressed mRNA in the presence of chemical substance/The level of expressed mRNA in the absence of chemical substance: 2.8
Yeast gene YGR130C, incubated two hours with chemical substance
  The level of expressed mRNA in the presence of chemical substance/The level of expressed mRNA in the absence of chemical substance: 0.9
Yeast gene YGR154C, incubated two hours with chemical substance
  The level of expressed mRNA in the presence of chemical substance/The level of expressed mRNA in the absence of chemical substance: 2.2
Yeast gene YGR221C, incubated two hours with chemical substance
  The level of expressed mRNA in the presence of chemical substance/The level of expressed mRNA in the absence of chemical substance: 1.4
Yeast gene YHR138C, incubated two hours with chemical substance
  The level of expressed mRNA in the presence of chemical substance/The level of expressed mRNA in the absence of chemical substance: 3.4
Yeast gene YHR199C, incubated two hours with chemical substance
  The level of expressed mRNA in the presence of chemical substance/The level of expressed mRNA in the absence of chemical substance: 2.0
Yeast gene YIL023C, incubated two hours with chemical substance
  The level of expressed mRNA in the presence of chemical substance/The level of expressed mRNA in the absence of chemical substance: 0.7
Yeast gene YIL041W, incubated two hours with chemical substance
  The level of expressed mRNA in the presence of chemical substance/The level of expressed mRNA in the absence of chemical substance: 1.3
Yeast gene YIL087C, incubated two hours with chemical substance
  The level of expressed mRNA in the presence of chemical substance/The level of expressed mRNA in the absence of chemical substance: 1.3
Yeast gene YJL057C, incubated two hours with chemical substance
  The level of expressed mRNA in the presence of chemical substance/The level of expressed mRNA in the absence of chemical substance: 1.6
Yeast gene YJL066C, incubated two hours with chemical substance
  The level of expressed mRNA in the presence of chemical substance/The level of expressed mRNA in the absence of chemical substance: 1.0
Yeast gene YJL082W, incubated two hours with chemical substance
  The level of expressed mRNA in the presence of chemical substance/The level of expressed mRNA in the absence of chemical substance: 0.5
Yeast gene YJL151C, incubated two hours with chemical substance
  The level of expressed mRNA in the presence of chemical substance/The level of expressed mRNA in the absence of chemical substance: 1.3
Yeast gene YJL152W, incubated two hours with chemical substance
  The level of expressed mRNA in the presence of chemical substance/The level of expressed mRNA in the absence of chemical substance: 1.4
Yeast gene YJL161W, incubated two hours with chemical substance
  The level of expressed mRNA in the presence of chemical substance/The level of expressed mRNA in the absence of chemical substance: 2.2
Yeast gene YJL171C, incubated two hours with chemical substance
  The level of expressed mRNA in the presence of chemical substance/The level of expressed mRNA in the absence of chemical substance: 1.0
Yeast gene YJR008W, incubated two hours with chemical substance
  The level of expressed mRNA in the presence of chemical substance/The level of expressed mRNA in the absence of chemical substance: 1.2
Yeast gene YJR054W, incubated two hours with chemical substance
  The level of expressed mRNA in the presence of chemical substance/The level of expressed mRNA in the absence of chemical substance: 1.2
Yeast gene YKL071W
  The level of expressed mRNA in the presence of chemical substance/The level of expressed mRNA in the absence of chemical substance: 21.9
Yeast gene YKL086W, incubated two hours with chemical substance
  The level of expressed mRNA in the presence of chemical substance/The level of expressed mRNA in the absence of chemical substance: 2.9
Yeast gene YKL107W
  The level of expressed mRNA in the presence of chemical substance/The level of expressed mRNA in the absence of chemical substance: 3.4
Yeast gene YKL151C, incubated two hours with chemical substance
  The level of expressed mRNA in the presence of chemical substance/The level of expressed mRNA in the absence of chemical substance: 1.3
Yeast gene YKL153W, incubated two hours with chemical substance
  The level of expressed mRNA in the presence of chemical substance/The level of expressed mRNA in the absence of chemical substance: 1.1
